This note sets out measurements from PubChem BioAssay (NCI).

Holding throughout (assay): NCI tumour cell line growth inhibition, 48 h
Assay [1] deals with DLD-1 colon.
The test system of assay [2] is DMS 273 small cell lung.
Assay [3] has as its system HOP-18 NSCLC.
Assay [4] deals with KM20L2 colon.
In assay [5] the test system is M19-MEL melanoma.
Assay [6] deals with MDA-N.
The test system of assay [7] is P388/ADR leukemia.
The test system of assay [8] is RXF-631 renal.
The subject of assay [9] is SN12K1 renal.
Assay [10] concerns SNB-78 CNS.
In assay [11] the test system is XF 498 CNS.

The structures appear in SMILES notation.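 Tested at 5 concentrations; 48 h exposure; 96-well plates; endpoints linearly interpolated, else capped at highest concentration. Here, GI50 denotes the concentration required for 50% inhibition of growth. At the TGI there is no net growth.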 A value given as a limit tells only on which side of the number the result lay.

As for `COc1cc(C2c3cc4c(cc3[C@@H](Nc3ccc([N+](=O)[O-])cc3)C3COC(=O)[C@H]23)OCO4)cc(OC)c1O` (stereo not given in full), the GI50 in assay [1] is 3.15 µM; in assay [2], 0.274 µM; in assay [5] it was 0.942 µM; in assay [11], 0.613 µM. In addition, the TGI is 19.2 µM in [1]; 5.65 µM in assay [2]; 77.2 µM in [3]; 14.8 µM in assay [4]; 22.8 µM in [5]; above 100 µM in [6]. Also, the TGI in assay [7] was 10.7 µM; in assay [8] it was 11.4 µM; in [9], 2.88 µM; in [10] it was above 71.5 µM; in [11], 15 µM.
